This note sets out measurements from ChEMBL document CHEMBL1144086, “Tryptamine derived amides and acetogenins from the seeds of Rollinia mucosa” (J Nat Prod, 1999).

In brackets after ≈: the same amount, converted by molar mass.

For one data set, the system named is MCF7. Kind of data set: Cytotoxicity against human MCF7 cells. Conditions: read-out: ED50 (the source's name). Format: functional.
Data set [1] is described as follows: (§1) Toxicity in Artemia salina. Format: organism-based. The conditions noted are these: in vivo.
For the next data set, the system named is A549. The experiment in a line: Cytotoxicity against human A549 cells. Format: functional. The conditions noted are these: read-out: ED50 (the source's name).
Data set [2] can be described thus: Cytotoxicity against human […] cells. Format: functional. Conditions: read-out: ED50 (the source's name).
Another data set concerns HT-29. The experiment in a line: Cytotoxicity against human HT-29 cells. Format: functional. The conditions noted are these: read-out: ED50 (the source's name).
Another data set concerns PC-3. The experiment in a line: Cytotoxicity against human PC-3 cells. Format: functional. The conditions noted are these: read-out: ED50 (the source's name).
Another data set has as its system MIA PaCa-2. The experiment in a line: Cytotoxicity against human PaCa2 cells. Format: functional. The conditions noted are these: read-out: ED50 (the source's name).
The next data set deals with Artemia salina. The description is as §1. Conditions: in vivo. Format: organism-based.

For the compound `CCCCCCCCCCCCCCCCCCCC(=O)NCCc1c[nH]c2ccccc12`, the EC50 (with MCF7; in the data set on A549; in data set [2]; in the data set on HT-29; with PC-3; in the data set with MIA PaCa-2) was greater than 10 µg/mL each time. The compound further showed an LC50 in data set [1] greater than 500 µg/mL.

With `CCCCCCCCCCCCCCCCCCCCCCCCC(=O)NCCc1c[nH]c2ccccc12`, the EC50 (with MCF7; with A549; in data set [2]; with HT-29; with PC-3; with MIA PaCa-2) was greater than 10 µg/mL throughout. This compound displayed an LC50 in data set [1] greater than 500 µg/mL.

Turning to `CCCCCCCCCCCCCCCCCCCCCCC(=O)NCCc1c[nH]c2ccccc12`, the EC50 (in the data set with MCF7; in the data set with A549; in data set [2]; in the data set with HT-29; in the data set with PC-3; in the data set on MIA PaCa-2) was greater than 10 µg/mL each time. The compound also displayed an LC50 in data set [1] greater than 500 µg/mL.

For the compound `CCCCCCCCCCCCCCCCCC(=O)NCCc1c[nH]c2ccccc12`, the EC50 (in the data set on MCF7; with A549; in data set [2]; with HT-29; in the data set with PC-3; in the data set on MIA PaCa-2) was greater than 10 µg/mL throughout. Also, the LC50 in data set [1] was greater than 500 µg/mL.

Take `CCCCCCCCCC[C@H](O)[C@@H]1CC[C@H]([C@H]2CC[C@@H]([C@H](O)CCCCCCCCCCCCC3=C[C@H](C)OC3=O)O2)O1` [MEMBRANACIN]: the EC50 in the data set with MCF7 was 2.18 µg/mL (≈ 3.59 µM); in the data set with A549 it was 0.4 µg/mL (≈ 0.659 µM); in data set [2], less than 0.001 µg/mL; with HT-29 it was 3.04 µg/mL (≈ 5.01 µM); with PC-3, less than 0.001 µg/mL; in the data set on MIA PaCa-2, 2.1 µg/mL (≈ 3.46 µM). The compound further showed an LC50 with Artemia salina of 5 ×10⁻² ug/ml.

As to `CCCCCCCCCCCCCCCCCCCCCCCCCC(=O)NCCc1c[nH]c2ccccc12`, the EC50 (with MCF7; with A549; in data set [2]; in the data set on HT-29; with PC-3; with MIA PaCa-2) was greater than 10 µg/mL each time. The compound also showed an LC50 in data set [1] greater than 500 µg/mL.

For the compound `CCCCCCCCCCCCCCCC(=O)NCCc1c[nH]c2ccccc12`, the EC50 (with MCF7; in the data set with A549; in data set [2]; in the data set on HT-29; in the data set on PC-3; in the data set on MIA PaCa-2) was greater than 10 µg/mL in each case. The compound also displayed an LC50 in data set [1] greater than 500 µg/mL.

Take `CCCCCCCCCCCCCCCCCCCCCC(=O)NCCc1c[nH]c2ccccc12`: the EC50 (with MCF7; with A549; in data set [2]; with HT-29; in the data set with PC-3; in the data set with MIA PaCa-2) was greater than 10 µg/mL each time. In data set [1], this compound gave an LC50 greater than 500 µg/mL.

`CCCCCCCCCCCCCCCCCCCCCCCC(=O)NCCc1c[nH]c2ccccc12`: the EC50 (with MCF7; in the data set with A549; in data set [2]; with HT-29; with PC-3; in the data set with MIA PaCa-2) was greater than 10 µg/mL in each case. In data set [1], this compound came in with an LC50 greater than 500 µg/mL.

For `COc1cccc2c1C(=O)c1c(O)c3c(c(O)c1C2=O)C[C@@](O)(C(=O)CO)C[C@@H]3O[C@H]1C[C@H](N)[C@H](O)[C@H](C)O1` [DOXORUBICIN], the EC50 is 3.6 µg/mL (≈ 6.62 µM) with MCF7; 0.89 µg/mL (≈ 1.64 µM) with A549; 0.0083 µg/mL (≈ 0.0153 µM) in data set [2]; 3.7 µg/mL (≈ 6.81 µM) with HT-29; 0.0056 µg/mL (≈ 0.0103 µM) in the data set with PC-3; 0.0011 µg/mL (≈ 0.00202 µM) in the data set with MIA PaCa-2.

For the compound `CCCCCCCCCC[C@H](O)[C@H]1CC[C@H]([C@H]2CC[C@H]([C@H](O)CCCCCCCCCCCCC3=C[C@H](C)OC3=O)O2)O1` [BULLANIN], the EC50 was 1.35 µg/mL (≈ 2.22 µM) in the data set on MCF7; 0.47 µg/mL (≈ 0.774 µM) in the data set on A549; less than 0.001 µg/mL in data set [2]; 1.69 µg/mL (≈ 2.78 µM) in the data set with HT-29; less than 0.001 µg/mL in the data set with PC-3; 1.92 µg/mL (≈ 3.16 µM) in the data set on MIA PaCa-2. The same compound returned an LC50 with Artemia salina of 1.6 ×10⁻² ug/ml.
